From patent EP1982595A1, “Insecticidal derivatives of substituted aminoheterocycles” (Bayer CropScience AG, priority 2007, dated 2008) come the findings set out here.

Data set [1] can be described thus: logP (acidic) / lgP (HCOOH), phys. data. It is filed as physicochemical. As to conditions: for logP: acidic; for lgP (HCOOH): preparation examples, b176 prints logP (HCOOH).
For a further data set, the system named is Myzus persicae. In words: Myzus persicae - test (spray application). Type of data set: in vivo. As to conditions: read-out: activity (mortality in %). How it is done:
Myzus persicae - test; (spray application)
(§1) To produce a suitable preparation of active compound, 1 part by weight of active compound is mixed with the stated amount of solvent and emulsifier, and the concentrate is diluted with emulsifier-containing water to the desired concentration.
Chinese cabbage (Brassica pekinesis) leaf-disks infected with all instars of the green peach aphid (Myzus persicae), are sprayed with a preparation of the active ingredient at the desired concentration.
After the specified period of time, mortality in % is determined, 100% means that all aphids have been killed; 0% means that none of the aphids have been killed, […]

In the next data set the test system is Phaedon cochleariae. Description: Phaedon cochleariae - test (spray application). Type of data set: in vivo. As to conditions: application rate of 500 g/ha, Chinese cabbage leaf-disks, mustard beetle larvae. How it is done: Phaedon cochlearlae - test (spray application)
To produce a suitable preparation of active compound, I part by weight of active compound is mixed with the stated amount of solvent and emulsifier, and the concentrate is diluted with emulsifier-containing water to the desired concentration.
Chinese cabbage (Brassica pekinesis) leaf-disks are treated by being sprayed with the preparation of the active compound of the desired concentration and are, after drying, infested with mustard beetle larvae (Phaedon cochleariae).
After the specified period of time, mortality in % is determined, 100 % means that all the beetle larvae have been killed; 0 % means that none of the beetle larvae have been killed.

Another data set deals with Tetranychus urticae. In words: Tetranychus urticae - test; OP-resistant (spray application). It is filed as in vivo. As to conditions: application rate of 100 g/ha, French bean, all stages. As to the method: Tetranychus urticae - test; OP-resistant (spray application)
as §1
French bean (Phaseolus vulgaris) which are heavily infested with all stages of the two spotted spidermite (Tetranychus urticae), are sprayed with a preparation of the active ingredient at the desired concentration.
After the specified period of time, mortality in % is determined, 100% means that all spider mites have been killed and 0% means that none of the spider mites have been killed.

The mark [2] stands for this setting: Table I-1, read-out: Phys. data = logP (acidic).
The mark [3] stands for this setting: application rate of 500 g/ha, spray application, Chinese cabbage leaf-disks, all instars of the green peach aphid.

Read-outs that look alike come from different tables or passages of the source. A value given as a limit tells only on which side of the number the result lay.

As to `S=C(NCc1ccncc1)N1CCOC1=N[C@H]1CCc2ccccc21` [1-43], the logP in data set [1] (setting [2]) came to 1.87.
Still for that read-out and setting: for `S=C(NCc1ccco1)N1CCOC1=N[C@H]1CCc2ccccc21` [1-45] the value was 4.17.
Regarding `C=CCNC(=S)N1CCOC1=NC1CCc2ccccc21` (centres unmarked) [1-47], the mortality at 500 g/ha in the data set on Myzus persicae (setting [3]) was not below 80%. Besides, the logP in data set [1] (setting [2]) is 3.85.
For the compound `CC(NC(=S)N1CCOC1=N[C@H]1CCc2ccccc21)c1ccccc1` (some centres unmarked) [1-29], the logP in data set [1] (setting [2]) was determined as 4.85.
For the compound `S=C(NCc1ccc(Cl)cc1Cl)N1CCOC1=N[C@H]1CCc2ccccc21` [1-27], the mortality at 500 g/ha in the data set with Myzus persicae (setting [3]) and in the data set on Phaedon cochleariae was not below 80% in each case. In data set [1] (setting [2]), the logP turned out to be 5.65.
In the case of `S=C(NCc1cccc(Cl)c1)N1CCOC1=N[C@H]1CCc2ccccc21` [1-20], the mortality at 500 g/ha with Myzus persicae (setting [3]) was not below 80%. In data set [1] (setting [2]), the logP came out at 4.97.
For `S=C(NCc1ccc2c(c1)OCO2)N1CCOC1=N[C@H]1CCc2ccccc21` [1-22], the mortality at 500 g/ha in the data set with Myzus persicae (setting [3]) and in the data set with Phaedon cochleariae was not below 80% throughout. Besides, the logP in data set [1] (setting [2]) came to 4.11.
With `CC(NC(=S)N1CCOC1=N[C@H]1CCc2ccccc21)c1ccccc1Cl` (some centres unmarked) [1-32], the mortality at 500 g/ha in the data set with Myzus persicae (setting [3]) was not below 80%. The lipophilicity (logP) in data set [1] (setting [2]) amounted to 5.31.
The corresponding values for `COc1ccc(CNC(=S)N2CCOC2=N[C@H]2CCc3ccccc32)cc1OC` [1-26] are not below 80% and 3.8.
For `CC(C)=CCNC(=S)N1CCOC1=N[C@H]1CCc2ccccc21` [1-72], the logP in data set [1] (setting [2]) was determined as 4.78.
Turning to `CC(NC(=S)N1CCOC1=N[C@H]1CCc2ccccc21)c1ccc(Cl)cc1` (some centres unmarked) [1-34], the mortality at 500 g/ha in the data set with Myzus persicae (setting [3]) is not below 80%. Besides, the logP in data set [1] (setting [2]) came to 5.64.
For `S=C(NCc1ccccc1Cl)N1CCOC1=N[C@H]1CCc2ccccc21` [1-21], in that order: not below 80% and 4.97.
For `S=C(NCc1ccccc1)N1CCOC1=NC1CCc2ccccc21` (centres unmarked) [1-1], in that order: not below 80% and 4.46.
As to `C=CCNC(=O)N1CCOC1=NC1CCc2ccccc21` (centres unmarked) [1-48], the logP in data set [1] (setting [2]) amounted to 3.85.
On to `S=C(NCc1ccccc1)N1CCOC1=N[C@H]1CCCc2ccccc21` [3-2, N-benzyl-2-[(1S)-1,2,3,4-tetrahydronaphthaline-1-ylimino]-1,3-oxazolidine-3-carbothioamide], for which the mortality at 500 g/ha in the data set with Myzus persicae (in Brassica rapa) is not below 80%. The same compound registered a Phys. data in data set [1] (Table I-3, logP (HCOOH), i.e. acidic conditions) of 4.67. Further, in data set [1], the “lgP (HCOOH)” value is 4.67.
With `Fc1ccc(CNC(=S)N2CCOC2=N[C@H]2CCc3ccccc32)cc1` [1-24], the mortality at 500 g/ha in the data set with Myzus persicae (setting [3]) was not below 80%. The logP in data set [1] (setting [2]) was found to be 4.51.
As to `CC(NC(=S)N1CCOC1=N[C@H]1CCc2ccccc21)c1cccc(Cl)c1` (some centres unmarked) [1-35], the mortality at 500 g/ha in the data set with Myzus persicae (setting [3]) and in the data set on Phaedon cochleariae was not below 80% in each case. Also, in data set [1] (setting [2]), the logP is 5.31.
For the compound `S=C(NCc1ccccc1)N1CCOC1=N[C@H]1CCc2ccccc21` [1-2, N-benzyl-2-[(1S)-2,3-dihydro-1H-inden-1-ylimino]-1,3-oxazolidiner3-carbothioamide], in the data set on Myzus persicae (setting [3]), the mortality at 500 g/ha is not below 80%. Further, the mortality at 100 g/ha with Tetranychus urticae is not below 80%. The logP in data set [1] (setting [2]) was 4.46. Also, the “lgP (HCOOH)” value in data set [1] was 4.46.
Consider `S=C(NCc1ccc(Cl)nc1)N1CCOC1=N[C@H]1CCc2ccccc21` [1-40], for which the logP in data set [1] (setting [2]) was 4.04.
On the same count and under the same terms, for `S=C(NCc1ncccn1)N1CCOC1=N[C@H]1CCc2ccccc21` [1-71] the value was 2.92.
Consider `S=C(NCCc1ccc(Cl)cc1)N1CCOC1=N[C@H]1CCc2ccccc21` [1-38], for which the mortality at 500 g/ha in the data set on Myzus persicae (setting [3]) was not below 80%. Further, in data set [1] (setting [2]), the logP stood at 5.25.
For `S=C(NCc1ccc(Cl)cc1)N1CCOC1=N[C@H]1CCc2ccccc21` [1-19], in that order: not below 80% and 5.02.
The corresponding values for `CC(NC(=S)N1CCOC1=NC1CCc2ccccc21)c1ccc(F)cc1` (centres unmarked) [1-36] are not below 80% and 4.91.
In the case of `Cc1ccc(CNC(=S)N2CCOC2=N[C@H]2CCc3ccccc32)cc1` [1-23], the mortality at 500 g/ha in the data set with Myzus persicae (setting [3]) is not below 80%. The logP in data set [1] (setting [2]) came out at 4.91.
In data set [1] (Table I-2, key logP (acidic) is printed only in the head of Table I-1), `CC(NC(=S)N1CCSC1=NC1CCc2c(F)cccc21)c1ccccc1` (centres unmarked) [2-31, 2-[aza(4-fluorindanyl)-methylene](1,3-thiazolidine-3-yl)(alphamethylbenzylamino)methane-1-thione] came in with a Phys. data of 5.47. Further, the logP in data set [1] (preparation example 3, text, read-out: logP (acidic)) is 5.47.
In the case of `COc1ccc(CNC(=S)N2CCOC2=N[C@H]2CCc3ccccc32)cc1` [1-25], the mortality at 500 g/ha in the data set on Myzus persicae (setting [3]) was not below 80%. In data set [1] (setting [2]), the logP worked out at 4.28.
In the case of `S=C(NCCc1cccc(Cl)c1)N1CCOC1=N[C@H]1CCc2ccccc21` [1-39], the mortality at 500 g/ha in the data set on Myzus persicae (setting [3]) and in the data set with Phaedon cochleariae was not below 80% in each case. Also, the logP in data set [1] (setting [2]) came out at 5.19.
Consider `S=C(NCc1cccnc1)N1CCOC1=N[C@H]1CCc2ccccc21` [1-44], for which the mortality at 500 g/ha in the data set on Myzus persicae (setting [3]) is not below 80%. The logP in data set [1] (setting [2]) is 2.17.
